This is an account of results in patent US10815197B2, “N-sulfonyl benzamides as voltage-gated sodium channel inhibitors” (SHANGHAI HAIYAN PHARMACEUTICAL TECHNOLOGY CO., LTD., priority 2016, dated 2020).

Molecules are shown by their SMILES.

The target of test [1] is T1, hCav3.2 (Homo sapiens, UniProt O95180).
T1 construct: host or cells: HEK
The test is described as follows: Manual patch clamp experiment of hCav3.2 channel (HEK-hCav3.2). The format is cell-based. Conditions: read-out: Cav3.2(IC50/nM). As for the experimental part: Manual Patch Clamp Experiment of hCav3.2 Channel: The stable cell line HEK-hCav3.2 used for manual patch clamp experiments was from WuXi Apptec (Shanghai) Company. […] Composition of extracellular fluid (millimoles) in the experiment: HEPES 10, CsCl 6, CaCl2) 2, TEA-Cl 140. The pH was adjusted to 7.4 with CsOH, while the osmotic pressure was adjusted to 310-320 mOsm with sucrose, filtered and stored at 4° C. Composition of the intracellular fluid (millimoles): HEPES 10, CsCl 55, CsSO4 75, MgCl2 10, EGTA 0.1. The pH was adjusted to 7.2 with CsOH, while the osmotic pressure was adjusted to 280-290 mOsm with sucrose, filtered and stored at −20° C. […] Manual Patch Clamp Experiment: The cell suspension was added to a 35 mm petri dish and placed on an inverted microscope stage. The cells were perfused with an extracellular fluid and the flow rate was 1-2 mL/min after cell adherence. […] The stimulation program was repeated every 15 s and recorded continuously. The inhibitory effect of the compound was calculated by the change of the current before and after dosing, and the IC50 value was fitted by the Hill equation.

In test [2] the target is T2, hNav1.5 (Homo sapiens, UniProt Q14524).
T2 construct: host or cells: HEK
T2 sequence (Q14524 whole entry): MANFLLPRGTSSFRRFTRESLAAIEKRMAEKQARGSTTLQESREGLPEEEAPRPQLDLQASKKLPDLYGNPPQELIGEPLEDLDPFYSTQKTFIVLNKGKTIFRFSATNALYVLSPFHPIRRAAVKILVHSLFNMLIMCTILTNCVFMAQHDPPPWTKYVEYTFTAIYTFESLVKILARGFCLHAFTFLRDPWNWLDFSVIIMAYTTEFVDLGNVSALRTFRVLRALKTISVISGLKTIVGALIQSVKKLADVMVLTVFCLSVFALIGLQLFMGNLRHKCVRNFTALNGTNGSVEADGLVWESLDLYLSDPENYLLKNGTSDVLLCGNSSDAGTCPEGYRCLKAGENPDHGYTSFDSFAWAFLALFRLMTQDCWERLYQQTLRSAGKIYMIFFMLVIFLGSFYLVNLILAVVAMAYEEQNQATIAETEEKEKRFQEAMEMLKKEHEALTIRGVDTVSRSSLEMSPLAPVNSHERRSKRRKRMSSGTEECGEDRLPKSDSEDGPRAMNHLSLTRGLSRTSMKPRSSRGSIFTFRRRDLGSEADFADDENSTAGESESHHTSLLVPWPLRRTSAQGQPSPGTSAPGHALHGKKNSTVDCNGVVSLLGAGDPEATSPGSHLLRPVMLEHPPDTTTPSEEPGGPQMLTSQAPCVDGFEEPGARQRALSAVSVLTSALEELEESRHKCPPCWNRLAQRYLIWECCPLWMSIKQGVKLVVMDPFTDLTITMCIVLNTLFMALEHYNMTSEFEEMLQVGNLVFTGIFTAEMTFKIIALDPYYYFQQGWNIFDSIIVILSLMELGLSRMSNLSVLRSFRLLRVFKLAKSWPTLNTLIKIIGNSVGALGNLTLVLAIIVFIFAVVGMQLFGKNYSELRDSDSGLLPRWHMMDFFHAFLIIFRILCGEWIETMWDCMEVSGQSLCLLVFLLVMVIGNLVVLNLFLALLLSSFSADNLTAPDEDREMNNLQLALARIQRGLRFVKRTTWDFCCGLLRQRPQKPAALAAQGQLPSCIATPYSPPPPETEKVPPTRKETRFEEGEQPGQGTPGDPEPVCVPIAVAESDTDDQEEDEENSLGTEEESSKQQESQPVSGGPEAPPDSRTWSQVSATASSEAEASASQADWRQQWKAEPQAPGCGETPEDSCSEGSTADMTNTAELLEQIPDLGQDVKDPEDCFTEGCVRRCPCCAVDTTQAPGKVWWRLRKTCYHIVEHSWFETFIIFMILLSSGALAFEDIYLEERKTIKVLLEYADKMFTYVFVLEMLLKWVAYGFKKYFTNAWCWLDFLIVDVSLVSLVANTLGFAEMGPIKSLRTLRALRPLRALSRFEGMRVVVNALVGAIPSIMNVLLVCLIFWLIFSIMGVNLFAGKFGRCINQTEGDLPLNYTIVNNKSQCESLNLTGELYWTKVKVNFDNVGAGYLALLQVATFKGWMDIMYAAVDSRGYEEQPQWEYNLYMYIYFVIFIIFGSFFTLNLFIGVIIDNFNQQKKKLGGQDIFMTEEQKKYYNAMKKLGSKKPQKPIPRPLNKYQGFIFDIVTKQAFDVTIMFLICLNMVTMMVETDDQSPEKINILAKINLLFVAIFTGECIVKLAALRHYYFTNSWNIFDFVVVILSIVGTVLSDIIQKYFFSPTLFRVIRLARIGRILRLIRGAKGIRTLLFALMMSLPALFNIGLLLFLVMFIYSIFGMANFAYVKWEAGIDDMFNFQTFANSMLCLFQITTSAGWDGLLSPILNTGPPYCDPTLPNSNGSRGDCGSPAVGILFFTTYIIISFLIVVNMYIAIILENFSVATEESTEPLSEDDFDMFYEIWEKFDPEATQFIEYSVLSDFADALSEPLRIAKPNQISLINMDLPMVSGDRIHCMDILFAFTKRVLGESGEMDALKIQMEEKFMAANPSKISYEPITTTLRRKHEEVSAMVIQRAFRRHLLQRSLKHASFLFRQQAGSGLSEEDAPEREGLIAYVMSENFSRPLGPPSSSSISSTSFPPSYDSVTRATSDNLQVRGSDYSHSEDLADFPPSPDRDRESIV
The test is described as follows: Manual patch clamp experiment hNav1.5 (HEK-hNav1.5 stable cell line). The test is classed as cell-based. Particulars: read-out: Nav1.5(IC50/nM). An excerpt: Assay 1: Manual Patch Clamp Experiment of Sodium Ion (hNav1.7, hNav1.5 and hNaV1.8) and Calcium Ion (hCav3.2) Channels
hNav1.7, hNav1.5 Manual Patch Clamp Experiment:
Patch voltage clamp electrophysiology allows for the direct measurement and quantification of current block of voltage-gated sodium channels (NaV's), and allows the determination of the time and voltage-dependence of block which has been interpreted as differential binding to the resting, open and inactivated states of the sodium channel to reflect the compound's inhibitory or activating effects (Hille, B., Journal of General Physiology (1977), 69: 497-515).
Representative compounds of the present invention were subject to a manual patch clamp experiment and the purpose of this study was to test the effect of compounds on this ion channel current on a stable cell line transfected with a specific ion channel using a manual patch clamp method. The used stable cell lines CHO-hNav1.7 and HEK-hNav1.5 were from Genionics and WuXi Apptec (Shanghai) respectively.
Manual patch clamp experimental program is as follows: […]
The time intervals of these two voltage stimulation programs were 10 s. The inhibitory effect of the compound was calculated by the change of the current before and after dosing, the IC50 value was fitted by the Hill equation.

T1 sequence (O95180 whole entry): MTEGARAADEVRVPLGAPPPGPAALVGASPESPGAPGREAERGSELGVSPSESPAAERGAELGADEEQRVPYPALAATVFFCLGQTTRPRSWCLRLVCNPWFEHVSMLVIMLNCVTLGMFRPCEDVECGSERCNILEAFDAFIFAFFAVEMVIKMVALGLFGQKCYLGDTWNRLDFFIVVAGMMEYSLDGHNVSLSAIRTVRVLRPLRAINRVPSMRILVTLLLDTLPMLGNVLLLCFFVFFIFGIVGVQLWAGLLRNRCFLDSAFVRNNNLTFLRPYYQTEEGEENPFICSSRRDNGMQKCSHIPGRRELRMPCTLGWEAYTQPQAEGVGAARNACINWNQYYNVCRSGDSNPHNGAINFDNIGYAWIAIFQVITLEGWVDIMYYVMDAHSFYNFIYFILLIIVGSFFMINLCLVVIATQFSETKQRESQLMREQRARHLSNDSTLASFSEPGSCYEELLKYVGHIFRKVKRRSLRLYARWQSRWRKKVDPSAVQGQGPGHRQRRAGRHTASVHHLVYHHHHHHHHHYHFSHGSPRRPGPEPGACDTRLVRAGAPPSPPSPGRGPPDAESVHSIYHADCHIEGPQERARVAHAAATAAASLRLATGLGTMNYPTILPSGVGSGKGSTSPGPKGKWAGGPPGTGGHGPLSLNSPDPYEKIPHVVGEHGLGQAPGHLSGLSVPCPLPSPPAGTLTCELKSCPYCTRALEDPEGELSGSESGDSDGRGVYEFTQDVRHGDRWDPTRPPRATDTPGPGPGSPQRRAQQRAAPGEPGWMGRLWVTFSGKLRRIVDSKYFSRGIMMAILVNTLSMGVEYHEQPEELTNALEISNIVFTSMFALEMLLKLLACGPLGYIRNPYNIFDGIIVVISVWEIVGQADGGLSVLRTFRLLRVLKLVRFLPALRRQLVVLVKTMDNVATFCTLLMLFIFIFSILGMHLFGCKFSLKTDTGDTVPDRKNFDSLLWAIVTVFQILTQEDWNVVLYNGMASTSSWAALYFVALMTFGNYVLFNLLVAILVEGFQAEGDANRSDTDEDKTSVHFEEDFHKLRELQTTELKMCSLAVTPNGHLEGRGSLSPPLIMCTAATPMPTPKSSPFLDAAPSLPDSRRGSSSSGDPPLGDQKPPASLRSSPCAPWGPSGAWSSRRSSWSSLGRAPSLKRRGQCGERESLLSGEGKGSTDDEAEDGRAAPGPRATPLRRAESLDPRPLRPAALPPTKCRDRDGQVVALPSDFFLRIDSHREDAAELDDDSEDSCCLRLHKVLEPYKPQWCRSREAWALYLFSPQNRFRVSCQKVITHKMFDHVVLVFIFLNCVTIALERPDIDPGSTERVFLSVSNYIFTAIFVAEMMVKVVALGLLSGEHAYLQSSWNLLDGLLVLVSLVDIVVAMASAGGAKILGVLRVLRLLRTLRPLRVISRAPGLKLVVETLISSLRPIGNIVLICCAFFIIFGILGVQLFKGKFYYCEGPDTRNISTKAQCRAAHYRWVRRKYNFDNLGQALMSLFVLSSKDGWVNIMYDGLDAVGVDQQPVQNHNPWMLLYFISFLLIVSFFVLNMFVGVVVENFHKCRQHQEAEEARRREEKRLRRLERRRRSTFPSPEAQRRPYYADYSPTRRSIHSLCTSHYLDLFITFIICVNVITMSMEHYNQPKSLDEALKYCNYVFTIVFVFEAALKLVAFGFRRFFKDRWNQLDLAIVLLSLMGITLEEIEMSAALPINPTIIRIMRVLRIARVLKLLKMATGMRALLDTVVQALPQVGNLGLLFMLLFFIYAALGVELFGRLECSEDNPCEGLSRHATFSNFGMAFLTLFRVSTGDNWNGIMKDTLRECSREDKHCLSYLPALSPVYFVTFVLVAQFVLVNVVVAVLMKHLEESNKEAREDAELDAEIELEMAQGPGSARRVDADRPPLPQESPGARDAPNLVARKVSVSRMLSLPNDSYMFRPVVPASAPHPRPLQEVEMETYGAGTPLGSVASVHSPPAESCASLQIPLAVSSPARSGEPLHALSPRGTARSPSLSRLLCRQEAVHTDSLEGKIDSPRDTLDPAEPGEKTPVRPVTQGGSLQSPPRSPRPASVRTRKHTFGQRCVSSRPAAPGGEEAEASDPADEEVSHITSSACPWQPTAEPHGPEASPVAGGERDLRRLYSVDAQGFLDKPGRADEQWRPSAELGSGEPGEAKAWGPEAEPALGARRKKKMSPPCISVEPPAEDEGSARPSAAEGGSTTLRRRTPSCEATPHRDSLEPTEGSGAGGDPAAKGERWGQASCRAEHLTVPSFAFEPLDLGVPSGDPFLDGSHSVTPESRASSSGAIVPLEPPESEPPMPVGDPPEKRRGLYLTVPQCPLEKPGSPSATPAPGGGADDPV

As for `Cc1cc(N2CCN(Cc3cc(F)c(C(=O)NS(=O)(=O)C4CC4)cc3Cl)CC2)ccc1Cl` [Compound Z-164], the IC50 in test [1] is more than 30000 nM; in test [2], 6160 nM.
